Measurements: patent US6706663B2, “Herbicidal 3-heterocyclic substituted benzisothiazole and benzisoxazole compounds” (Wyeth, priority 2000, dated 2004)

Tests used:
[1] = system: IPOHE (Ipomoea hederacea); assay: Preemergence herbicidal evaluation; format: in vivo, (L.) Jacq.; conditions: rated 4-5 weeks after treatment
[2] = system: GLXMAW (Soybean, Williams); assay: Preemergence herbicidal evaluation; format: in vivo, Glycine max, (L.) Merr. cv Williams; conditions: rated 4-5 weeks after treatment
[3] = system: ECHORC (Echinochloa oryzoides); assay: Flooded paddy, preemergence weed control; format: in vivo, Echinochloa oryzoides (Ard.) Fritsch.; conditions: rated 3-4 weeks after treatment, 0-9 rating scale
Procedure, shortened: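 Seeds or propagating organs were sown in the top 0.5 cm of silt loam soil, flooded, and the water kept 1.5 to 3 cm above the soil surface throughout. Plants were grown in the greenhouse and rated visually on a 0-9 scale against a control.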

[4] = system: ABUTH (Abutilon theophrasti); assay: Preemergence herbicidal evaluation; format: in vivo, Medic.; conditions: rated 4-5 weeks after treatment
[5] = system: TRZAWR (Wheat, Winter, cv Riband); assay: Preemergence herbicidal evaluation; format: in vivo, Triticum aestivum; conditions: rated 4-5 weeks after treatment
Procedure, shortened: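 Greenhouse preemergence test: freshly planted cups were sprayed once with an aqueous acetone solution of compound. Injury was judged visually on a 0–9 scale relative to a control, four to five weeks later.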

ZEAMX (Corn, Field) [6] = assay: Postemergence herbicidal evaluation; format: in vivo, Zea mays, L.; conditions: postemergence
Procedure, shortened: (§1)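 Seedlings grown for about two weeks were sprayed postemergence and then kept under standard greenhouse care. Injury was rated visually 4–5 weeks after treatment on a 0–9 scale against untreated controls, and ratings from repeat tests were averaged.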

[7] = system: ECHCG (Echinochloa crus-galli); assay: Postemergence herbicidal evaluation; format: in vivo, (L.) Beau; conditions: postemergence
Procedure, shortened: as §1

[8] = system: GLXMAW (Soybean, Williams); assay: Postemergence herbicidal evaluation; format: in vivo, Glycine max, (L.) Merr. cv Williams; conditions: postemergence
Procedure, shortened: as §1

ORYSAT (Rice, Tebonnet) = assay: Flooded paddy, post-transplant rice tolerance; format: in vivo, Oryza sativa, (L.) Tebonnet; conditions: flooded paddy, post-transplant rice, rated 3-4 weeks after treatment, 0-9 rating scale
Procedure, shortened: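 Two ten-day-old Tebonnet rice seedlings transplanted into silt loam, then flooded with water held at 1.5–3 cm above soil; herbicide applied post-transplant. Plants kept in greenhouse and rated visually 0–9 versus untreated control for stand, vigor, malformation, size and chlorosis.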

ZEAMX (Corn, Field) [9] = assay: Preemergence herbicidal evaluation; format: in vivo, Zea mays, L.; conditions: rated 4-5 weeks after treatment

Row | SMILES | Preemergence herbicidal rating IPOHE ([1]; Rate 0.0620 kg/ha) | Preemergence herbicidal rating IPOHE ([1]; Rate 0.1250 kg/ha) | Preemergence herbicidal rating IPOHE ([1]; Rate 0.2500 kg/ha) | Preemergence herbicidal rating GLXMAW ([2]; Rate 0.0620 kg/ha) | Preemergence herbicidal rating GLXMAW ([2]; Rate 0.1250 kg/ha) | Preemergence herbicidal rating GLXMAW ([2]; Rate 0.2500 kg/ha) | herbicidal rating, ECHORC ([3]; rate 0.0320 kg/ha) | herbicidal rating, ECHORC ([3]; rate 0.1250 kg/ha) | Preemergence herbicidal rating ABUTH ([4]; Rate 0.0620 kg/ha) | Preemergence herbicidal rating ABUTH ([4]; Rate 0.1250 kg/ha) | Preemergence herbicidal rating ABUTH ([4]; Rate 0.2500 kg/ha) | Preemergence herbicidal rating TRZAWR ([5]; Rate 0.0620 kg/ha) | Preemergence herbicidal rating TRZAWR ([5]; Rate 0.1250 kg/ha) | Preemergence herbicidal rating TRZAWR ([5]; Rate 0.2500 kg/ha) | ZEAMX herbicidal rating (ZEAMX (Corn, Field) [6]; rate 0.0320 kg/ha) | ZEAMX herbicidal rating (ZEAMX (Corn, Field) [6]; rate 0.0620 kg/ha) | ECHCG herbicidal rating ([7]; rate 0.0320 kg/ha) | ECHCG herbicidal rating ([7]; rate 0.0620 kg/ha) | GLXMAW herbicidal rating ([8]; rate 0.0320 kg/ha) | GLXMAW herbicidal rating ([8]; rate 0.0620 kg/ha) | other results
1 | C[C@@H]1C[C@H](C)OC(c2nsc3ccc(-n4c(=O)cc(C(F)(F)F)n(C)c4=O)cc23)O1 (stereo partly drawn) [Compound 51, 3-[3-[(4R,6S)-4,6-dimethyl-m-dioxan-2-yl]-1,2-benzisothiazol-5-yl]-1-methyl-6-(trifluoromethyl)uracil] | 6.5 | 9.0 | 9.0 | 9.0 | 9.0 | 9.0 | 9.0 | 9.0 | 9.0 | 9.0 | 9.0 | 9.0 | 9.0 | 9.0 | 5.0 | 5.5 | 3.0 | 3.0 | 5.0 | 7.5 | herbicidal rating, ECHORC ([3]; rate 0.0080 kg/ha): 8.0; herbicidal rating, ORYSAT (rice tolerance) (ORYSAT (Rice, Tebonnet); rate 0.0080 kg/ha): 7.0; herbicidal rating, ORYSAT (rice tolerance) (ORYSAT (Rice, Tebonnet); rate 0.0320 kg/ha): 9.0; herbicidal rating, ORYSAT (rice tolerance) (ORYSAT (Rice, Tebonnet); rate 0.1250 kg/ha): 9.0; Preemergence herbicidal rating ZEAMX (ZEAMX (Corn, Field) [9]; Rate 0.0620 kg/ha): 8.0; Preemergence herbicidal rating ZEAMX (ZEAMX (Corn, Field) [9]; Rate 0.1250 kg/ha): 8.5; Preemergence herbicidal rating ZEAMX (ZEAMX (Corn, Field) [9]; Rate 0.2500 kg/ha): 9.0
2 | Cn1c(C(F)(F)F)cc(=O)n(-c2ccc3snc(C4(C)OCCO4)c3c2)c1=O [Compound 54, 1-methyl-3-[3-(2-methyl-1,3-dioxolan-2-yl)-1,2-benzisothiazol-5-yl]-6-(trifluoromethyl)uracil] | 9.0 | 9.0 | 9.0 | 9.0 | 9.0 | 9.0 | 8.0 | 9.0 | 9.0 | 9.0 | 9.0 | 9.0 | 9.0 | 9.0 | 4.0 | 4.0 | 1.0 | 3.0 | 8.0 | 8.5 | herbicidal rating, ECHORC ([3]; rate 0.0080 kg/ha): 8.0; ZEAMX herbicidal rating (ZEAMX (Corn, Field) [6]; rate 0.1250 kg/ha): 5.5; ECHCG herbicidal rating ([7]; rate 0.1250 kg/ha): 3.0; GLXMAW herbicidal rating ([8]; rate 0.1250 kg/ha): 9.0; herbicidal rating, ORYSAT (rice tolerance) (ORYSAT (Rice, Tebonnet); rate 0.0080 kg/ha): 7.0; herbicidal rating, ORYSAT (rice tolerance) (ORYSAT (Rice, Tebonnet); rate 0.0320 kg/ha): 8.5; herbicidal rating, ORYSAT (rice tolerance) (ORYSAT (Rice, Tebonnet); rate 0.1250 kg/ha): 9.0; Preemergence herbicidal rating ZEAMX (ZEAMX (Corn, Field) [9]; Rate 0.0620 kg/ha): 8.0; Preemergence herbicidal rating ZEAMX (ZEAMX (Corn, Field) [9]; Rate 0.1250 kg/ha): 8.5; Preemergence herbicidal rating ZEAMX (ZEAMX (Corn, Field) [9]; Rate 0.2500 kg/ha): 9.0
3 | CC1CC(C)(C)OC(c2nsc3ccc(-n4c(=O)cc(C(F)(F)F)n(C)c4=O)cc23)O1 (stereo not shown) [Compound 55, 1-methyl-6-(trifluoromethyl)-3-[3-(4,4,6-trimethyl-m-dioxan-2-yl)-1,2-benzisothiazol-5-yl]uracil] | 7.5 | 7.5 | 8.0 | 6.5 | 8.0 | 9.0 | 7.5 | 9.0 | 9.0 | 9.0 | 9.0 | 8.0 | 9.0 | 9.0 | 4.5 | 5.0 | 1.0 | 1.0 | 4.5 | 5.0 | herbicidal rating, ECHORC ([3]; rate 0.0080 kg/ha): 5.0; herbicidal rating, ORYSAT (rice tolerance) (ORYSAT (Rice, Tebonnet); rate 0.0080 kg/ha): 3.0; herbicidal rating, ORYSAT (rice tolerance) (ORYSAT (Rice, Tebonnet); rate 0.0320 kg/ha): 4.5; herbicidal rating, ORYSAT (rice tolerance) (ORYSAT (Rice, Tebonnet); rate 0.1250 kg/ha): 9.0; Preemergence herbicidal rating ZEAMX (ZEAMX (Corn, Field) [9]; Rate 0.0620 kg/ha): 8.0; Preemergence herbicidal rating ZEAMX (ZEAMX (Corn, Field) [9]; Rate 0.1250 kg/ha): 9.0; Preemergence herbicidal rating ZEAMX (ZEAMX (Corn, Field) [9]; Rate 0.2500 kg/ha): 8.0
4 | CC1COC(c2nsc3ccc(-n4c(=O)cc(C(F)(F)F)n(C)c4=O)cc23)O1 (stereo not shown) [Compound 57, 1-methyl-3-[3-(4-methyl-1,3-dioxolan-2-yl)-1,2-benzisothiazol-5-yl]-6-(trifluoromethyl)uracil] | 9.0 | 9.0 | 9.0 | 9.0 | 9.0 | 9.0 | 8.0 | 9.0 | 9.0 | 9.0 | 9.0 | 8.0 | 8.0 | 9.0 | 5.0 | 5.5 | 3.0 | 3.0 | 7.0 | 8.5 | herbicidal rating, ECHORC ([3]; rate 0.0080 kg/ha): 5.0; herbicidal rating, ORYSAT (rice tolerance) (ORYSAT (Rice, Tebonnet); rate 0.0080 kg/ha): 3.0; herbicidal rating, ORYSAT (rice tolerance) (ORYSAT (Rice, Tebonnet); rate 0.0320 kg/ha): 8.0; herbicidal rating, ORYSAT (rice tolerance) (ORYSAT (Rice, Tebonnet); rate 0.1250 kg/ha): 9.0; Preemergence herbicidal rating ZEAMX (ZEAMX (Corn, Field) [9]; Rate 0.0620 kg/ha): 7.5; Preemergence herbicidal rating ZEAMX (ZEAMX (Corn, Field) [9]; Rate 0.1250 kg/ha): 8.0; Preemergence herbicidal rating ZEAMX (ZEAMX (Corn, Field) [9]; Rate 0.2500 kg/ha): 9.0
5 | C=C1COC(c2nsc3ccc(-n4c(=O)cc(C(F)(F)F)n(C)c4=O)cc23)OC1 [Compound 58, 2,4(1H,3H)-pyrimidinedione, 1-methyl-3-[3-(5-methylene-m-dioxan-2-yl)-1,2-benzisothiazol-5-yl]-6-(trifluoromethyl)-] | 6.5 | 7.5 | 9.0 | 9.0 | 8.0 | 9.0 | 6.0 | 9.0 | 9.0 | 9.0 | 9.0 | 7.0 | 8.0 | 8.0 | 5.5 | 5.5 | 1.0 | 3.0 | 7.0 | 7.5 | herbicidal rating, ORYSAT (rice tolerance) (ORYSAT (Rice, Tebonnet); rate 0.0320 kg/ha): 4.0; herbicidal rating, ORYSAT (rice tolerance) (ORYSAT (Rice, Tebonnet); rate 0.1250 kg/ha): 7.0; Preemergence herbicidal rating ZEAMX (ZEAMX (Corn, Field) [9]; Rate 0.0620 kg/ha): 8.0; Preemergence herbicidal rating ZEAMX (ZEAMX (Corn, Field) [9]; Rate 0.1250 kg/ha): 9.0; Preemergence herbicidal rating ZEAMX (ZEAMX (Corn, Field) [9]; Rate 0.2500 kg/ha): 9.0
6 | Cc1cnn(-c2nsc3ccc(-n4c(=O)cc(C(F)(F)F)n(C)c4=O)cc23)c1 [Compound 59, 1-methyl-3-[3-(4-methylpyrazol-1-yl)-1,2-benzisothiazol-5-yl]-6-(trifluoromethyl)uracil] | 0.0 | 1.0 | 3.0 | 0.0 | 2.0 | 3.0 | 0.0 | 3.0 | 0.0 | 9.0 | 7.0 | 1.0 | 2.0 | 2.0 | 5.5 | 6.5 | 0.0 | 0.0 | 7.5 | 7.5 | herbicidal rating, ECHORC ([3]; rate 0.0080 kg/ha): 0.0; ZEAMX herbicidal rating (ZEAMX (Corn, Field) [6]; rate 0.1250 kg/ha): 7.0; ECHCG herbicidal rating ([7]; rate 0.1250 kg/ha): 3.0; GLXMAW herbicidal rating ([8]; rate 0.1250 kg/ha): 8.0; herbicidal rating, ORYSAT (rice tolerance) (ORYSAT (Rice, Tebonnet); rate 0.0080 kg/ha): 0.0; herbicidal rating, ORYSAT (rice tolerance) (ORYSAT (Rice, Tebonnet); rate 0.0320 kg/ha): 0.0; herbicidal rating, ORYSAT (rice tolerance) (ORYSAT (Rice, Tebonnet); rate 0.1250 kg/ha): 0.0; Preemergence herbicidal rating ZEAMX (ZEAMX (Corn, Field) [9]; Rate 0.0620 kg/ha): 1.0; Preemergence herbicidal rating ZEAMX (ZEAMX (Corn, Field) [9]; Rate 0.1250 kg/ha): 5.0; Preemergence herbicidal rating ZEAMX (ZEAMX (Corn, Field) [9]; Rate 0.2500 kg/ha): 5.0
